Measurements from patent US9963696B2, “Method for screening mutant microorganism overproducing target metabolite using synthetic suicide genetic circuit” (Korea University Research and Business Foundation, priority 2014, dated 2018).

Key:
glmS ribozyme = experiment: growth of yeast carrying the glmS suicide riboswitch with externally added GlcN in the presence of fluorocytosine; assay type: cell-based, Saccharomyces cerevisiae
From the text: The gene fragment to be inserted was transformed into Saccharomyces cerevisiae BY4742. In order to examine whether the suicide riboswitch was inserted into the gene of the yeast, a colony selected on an SD-URA medium (2% glucose, 0.67% yeast nitrogen base without amino acids, 0.77 g/L CSM-URA dropout mixture) plate was selected. As a result, it could be seen that the glmS ribozyme was inserted into the 3′UTR (untranslated region) of FCY1 locus in the BY4742 strain.
In addition, in order to examine whether the suicide riboswitch operates properly, whether the growth rate of cells having the suicide riboswitch introduced therein changes depending on the concentration of GlcN6P in the cells was examined. In the presence of fluorocytosine, glucosamine (GlcN) was externally added to the culture medium so that it was converted to GlcN6P by intracellular hexokinase.
A BY4742 FGU strain and other strains, which have a suicide riboswitch introduced therein, were cultured in minimal media. For culture of BY4742 FGU, SD-URA medium supplemented with 5 mg/L of fluorocytosine was used. At 2 days after seeding, absorbance was used. To screen the GFA1 mutant library, medium supplemented with 10 mg/L of fluorocytosine was used, and to screen the HAD phosphatase library, medium supplemented with 20 mg/L of fluorocytosine was used (FIG. 2c).

FMN ribozyme = experiment: growth of yeast carrying the FMN suicide riboswitch with added or intracellularly produced FMN; assay type: cell-based, Saccharomyces cerevisiae
From the text: Using the same method as described in Example 1-1, a FMN ribozyme (Proc. Natl. Acad. Sci. USA Vol. 96, pp. 3584-3589, March 1999, “Engineering precision RNA molecular switches”)
Biochemistry was inserted into the 3′ UTR of the FCY1 gene (NC_001148.4). In order to examine whether the suicide riboswitch operates properly, an experiment for examining whether the growth rate of cells having the suicide riboswitch introduced therein changes depending on the concentration of FMN in the cells was performed.
Specifically, FMN was externally added to the culture medium.
In addition, the FMN1 gene was cloned into a p413GPD plasmid, which was then transformed into a strain having the FMN suicide riboswitch introduced therein so that FMN was produced in the cells. Also, the cells were treated with fluorocytosine. […] In addition, it could be seen that the absorbance at 660 nm was high due to the production of FMN (FIG. 6c).

[1] = FMN produced in the cells from FMN1 on p413GPD plasmid, treated with fluorocytosine

| Structure (SMILES) | growth rate of cells having the suicide riboswitch (glmS ribozyme; GlcN externally added to culture medium, in the presence of fluorocytosine, increasing GlcN6P concentration) | absorbance at 660 nm (glmS ribozyme; various concentrations of added GlcN) | absorbance (FMN ribozyme; FMN externally added to culture medium, increasing concentration) | absorbance at 660 nm (FMN ribozyme; [1]) | growth rate of the cells (FMN ribozyme; [1]) |
| --- | --- | --- | --- | --- | --- |
| N[C@H]1C(O)O[C@H](CO)[C@@H](O)[C@@H]1O (some centres unmarked) [GlcN, glucosamine] | the growth rate of the cells increased | changed depending on the concentration of GlcN | – | – | – |
| Cc1cc2nc3c(=O)[nH]c(=O)nc-3n(C[C@H](O)[C@H](O)[C@H](O)COP(=O)(O)O)c2cc1C [FMN, flavin mononucleotide] | – | – | the absorbance also increased | high | the growth rate of the cells was high |
